Here are results for nine compounds from PubChem BioAssay (NCI).

Test systems include MDA-MB-435; NCI-H226 lung; HOP-92 NSCLC; SF-295 CNS; UO-31 renal; OVCAR-3 ovarian; CAKI-1 renal; SW-620 colon; HS 578T breast; SNB-75 CNS.
Common to all, as to assay: growth of human tumour cells (NCI), 48 h

SMILES strings stand for the structures.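 These data come from cells grown in 96-well plates and exposed to compound for 48 hours at five concentrations. GI50 marks 50% less growth. TGI marks complete inhibition of growth.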

As for `Cc1cc[c-]cc1.Fc1c[c-]c(-c2ccccn2)c(F)c1.N#CCC[PH+](CCC#N)c1ccccc1.[Pt+2]`, the GI50 with MDA-MB-435 is 2.47 µM; with NCI-H226 lung it was 2.62 µM; with HOP-92 NSCLC, 2.14 µM; in the test on SF-295 CNS, 3.91 µM; in the test with UO-31 renal it was 1.45 µM; in the test on OVCAR-3 ovarian, 3.26 µM. Moreover, the figures for the GI50 with CAKI-1 renal, in the test with SW-620 colon and with HS 578T breast were 2.7 µM, 2.25 µM and 3.39 µM, respectively. For the same compound, the TGI in the test on MDA-MB-435 came out at 6.75 µM; in the test with NCI-H226 lung, 7.06 µM; with HOP-92 NSCLC, 8.05 µM; with SF-295 CNS, 29.8 µM; in the test with UO-31 renal it was 2.82 µM; in the test on OVCAR-3 ovarian, 13.1 µM. The TGI worked out at 14.1 µM in the test on CAKI-1 renal, 5.35 µM in the test on SW-620 colon and 43.5 µM in the test with HS 578T breast.
For `COc1cc(Nc2ncc3c(n2)-c2ccc(Cl)cc2C(c2c(F)cccc2OC)=NC3)ccc1C(=O)O`, the GI50 was 2.06 µM with NCI-H226 lung; 2.35 µM in the test on HOP-92 NSCLC; 2.23 µM in the test on SNB-75 CNS; 0.0719 µM in the test with SF-295 CNS; 2.57 µM in the test with UO-31 renal; 7.33 µM in the test with OVCAR-3 ovarian. Moreover, the GI50 with CAKI-1 renal is 1.66 µM; in the test with SW-620 colon, 1.74 µM; in the test on HS 578T breast it was 3.3 µM. Moreover, the TGI in the test with NCI-H226 lung was 18.1 µM; in the test on HOP-92 NSCLC, 14.1 µM; in the test with SNB-75 CNS, 24.6 µM; in the test on SF-295 CNS, over 64.1 µM; with UO-31 renal, 21.4 µM; in the test on OVCAR-3 ovarian, 34.4 µM. Also, the TGI with CAKI-1 renal was 29.3 µM; in the test with SW-620 colon, over 100 µM; in the test with HS 578T breast it was over 71.3 µM.
Consider `O=C1OCC2=C1C(c1cccc(F)c1)c1cc3c(cc1N2CCO)OCCO3` (stereo not drawn), for which the GI50 with NCI-H226 lung was 3.18 µM; in the test with HOP-92 NSCLC, 2.07 µM; in the test on SNB-75 CNS, 0.113 µM; in the test on SF-295 CNS, 0.134 µM; in the test on UO-31 renal, 0.276 µM; in the test on OVCAR-3 ovarian, 0.142 µM. Besides, the figures for the GI50 in the test on CAKI-1 renal, in the test on SW-620 colon and with HS 578T breast were 0.144 µM, 0.186 µM and 0.179 µM, respectively. Besides, the TGI is over 50 µM in the test with NCI-H226 lung; over 50 µM in the test on HOP-92 NSCLC; 0.38 µM with SNB-75 CNS; over 50 µM in the test on SF-295 CNS; over 50 µM in the test with UO-31 renal; over 50 µM with CAKI-1 renal. For the same compound, the TGI in the test on SW-620 colon is over 50 µM; in the test with HS 578T breast it was 7.16 µM.
As for `COc1ccc(C(=O)Nc2ncc(Cc3ccc(F)cc3)s2)cc1`, the GI50 is 0.0829 µM with NCI-H226 lung; 1.45 µM with HOP-92 NSCLC; 0.036 µM in the test with SNB-75 CNS; 0.0614 µM in the test with SF-295 CNS; 0.908 µM with UO-31 renal; 0.0346 µM in the test on OVCAR-3 ovarian. For the same compound, the GI50 was 0.0446 µM in the test on CAKI-1 renal, 0.0449 µM with SW-620 colon and 0.052 µM in the test on HS 578T breast. The TGI in the test on NCI-H226 lung was over 100 µM; with HOP-92 NSCLC, 76 µM; in the test on SNB-75 CNS it was over 100 µM; with SF-295 CNS, 2.03 µM; in the test on UO-31 renal, over 100 µM; in the test with OVCAR-3 ovarian it was 1.32 µM. Besides, the TGI with CAKI-1 renal is 30.7 µM; in the test with SW-620 colon, over 100 µM; in the test on HS 578T breast, 34.6 µM.
As to `COC(=O)C1CC2(c3ccc(C)cc3)C(c3ccc(C)cc3)=C(c3ccc(C)cc3)C1(c1ccc(C)cc1)S2=O` (stereo not drawn), the GI50 is over 100 µM with MDA-MB-435; over 100 µM in the test on NCI-H226 lung; 10.6 µM with SNB-75 CNS; 57.6 µM with SF-295 CNS; over 100 µM in the test with UO-31 renal; over 100 µM in the test on OVCAR-3 ovarian. Further, the GI50 is over 100 µM in the test with CAKI-1 renal, over 100 µM in the test on SW-620 colon and 48.6 µM in the test with HS 578T breast. Also, the TGI was over 100 µM in the test on MDA-MB-435; over 100 µM with NCI-H226 lung; 29.6 µM in the test with SNB-75 CNS; over 100 µM in the test on SF-295 CNS; over 100 µM in the test on UO-31 renal; over 100 µM in the test with OVCAR-3 ovarian. In addition, the TGI in the test on CAKI-1 renal, with SW-620 colon and in the test on HS 578T breast was over 100 µM in each case.
As for `NC1=CC(=O)C(=O)c2cccnc21`, the GI50 in the test on MDA-MB-435 is 1.74 µM; in the test on NCI-H226 lung, 14.7 µM; in the test on SNB-75 CNS, 3.02 µM; in the test on SF-295 CNS, 2.48 µM; in the test on UO-31 renal it was 2.48 µM; with OVCAR-3 ovarian, 12.9 µM. For the same compound, the GI50 is 8.45 µM in the test on CAKI-1 renal, 8.67 µM in the test on SW-620 colon and 5.16 µM in the test with HS 578T breast. Further, the TGI in the test on MDA-MB-435 worked out at 3.17 µM; with NCI-H226 lung, 42.5 µM; in the test on SNB-75 CNS, 15.3 µM; in the test with SF-295 CNS, 10.3 µM; in the test with UO-31 renal it was 17.7 µM; in the test on OVCAR-3 ovarian, 29.4 µM. Further, the TGI came to 31.2 µM with CAKI-1 renal, 24.3 µM in the test on SW-620 colon and 55.1 µM with HS 578T breast.
With `O=C(O)c1cn(C2CC2)c2cc(N3CCN(S(=O)(=O)c4ccc(Cl)c(Cl)c4)CC3)c(F)cc2c1=O`, the GI50 with MDA-MB-435 was 2.97 µM; in the test with NCI-H226 lung, 3.58 µM; in the test with HOP-92 NSCLC it was 1.54 µM; in the test on UO-31 renal, 2.58 µM; in the test on OVCAR-3 ovarian, 3.9 µM; in the test on SW-620 colon, 4.05 µM. For the same compound, the GI50 in the test on HS 578T breast was 4.26 µM. The TGI was over 100 µM in the test with MDA-MB-435; over 100 µM in the test on NCI-H226 lung; 5.71 µM in the test with HOP-92 NSCLC; over 100 µM in the test on UO-31 renal; 44 µM with OVCAR-3 ovarian; over 100 µM with SW-620 colon. In addition, the TGI in the test with HS 578T breast was over 100 µM.
Turning to `COc1cc(C/C=C/c2ccccc2)c(OC)cc1O`, the TGI with MDA-MB-435 worked out at 36.9 µM; with NCI-H226 lung, 79.3 µM; with HOP-92 NSCLC, 33 µM; in the test with SNB-75 CNS, 77.6 µM; in the test on UO-31 renal, 31.4 µM; in the test with OVCAR-3 ovarian it was 51.1 µM. Moreover, the values for the TGI in the test with CAKI-1 renal, in the test with SW-620 colon and with HS 578T breast were 65.7 µM, 43.3 µM and 90 µM, respectively.
With `BrP(NC1CCCCCC1)(c1ccccc1)(c1ccccc1)c1ccccc1`, the TGI in the test on MDA-MB-435 was 7.63 µM; in the test with NCI-H226 lung, 33 µM; in the test with SF-295 CNS, 12.2 µM; in the test with UO-31 renal, 17.4 µM; in the test with OVCAR-3 ovarian, 9.94 µM; in the test with CAKI-1 renal it was 13 µM. Besides, the TGI in the test with SW-620 colon stood at 13.6 µM; in the test with HS 578T breast, 12.4 µM.
